Tests used:
velvetleaf = test: Test B pre/postemergence velvetleaf; type: in vivo, Abutilon theophrasti
How it was run: (§1)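 Response is a visual 0-to-10 score relative to untreated plants, where 0 means no effect and 10 means complete control, taken twelve to sixteen days after application. Treatments went onto soil at planting and onto foliage of 1- to 4-leaf plants, using a surfactant-containing non-phytotoxic solvent.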

soybean = test: Test B pre/postemergence soybean; type: in vivo, Glycine max
How it was run: as §1

pigweed = test: Test B pre/postemergence pigweed; type: in vivo, Amaranthus retroflexus
How it was run: as §1

wheat = test: Test B pre/postemergence wheat; type: in vivo, Triticum aestivum
How it was run: as §1

crabgrass = test: Test B pre/postemergence crabgrass; type: in vivo, Digitaria sanguinalis
How it was run: as §1

corn = test: Test B pre/postemergence corn; type: in vivo, Zea mays
How it was run: as §1

bamyardgrass = test: Test B flood test barnyardgrass; type: in vivo, Echinochloa crus-galli
How it was run: (§2)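 Flood test on plants grown to the 2-leaf stage; treated plants kept in greenhouse twelve to sixteen days, then visually rated against controls on a 0 (no effect) to 10 (complete control) scale.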

rape = test: Test B pre/postemergence rape; type: in vivo, Brassica napus
How it was run: as §1

wild oat = test: Test B pre/postemergence wild oat; type: in vivo, Avena fatua
How it was run: as §1

smallflower flatsedge = test: Test B flood test smallflower flatsedge; type: in vivo, Cyperus difformis
How it was run: as §2

blackgrass = test: Test B pre/postemergence blackgrass; type: in vivo, Alopecurus myosuroides
How it was run: as §1

surinam grass = test: Test B pre/postemergence surinam grass; type: in vivo, Brachiaria decumbens
How it was run: as §1

bedstraw = test: Test B pre/postemergence bedstraw; type: in vivo, Galium aparine
How it was run: as §1

purple nutsedge = test: Test B pre/postemergence purple nutsedge; type: in vivo, Cyperus rotundus
How it was run: as §1

cocklebur = test: Test B pre/postemergence cocklebur; type: in vivo, Xanthium strumarium
How it was run: as §1

sugar beet = test: Test B pre/postemergence sugar beet; type: in vivo, Beta vulgaris
How it was run: as §1

[1] = Preemergence, Rate 62 g/ha, scale of 0 to 10 where 0 is no effect and 10 is complete control
[2] = Preemergence, Rate 250 g/ha, scale of 0 to 10 where 0 is no effect and 10 is complete control
[3] = Preemergence, Rate 500 g/ha, scale of 0 to 10 where 0 is no effect and 10 is complete control
[4] = Rate 62 g/ha, Postemergence, scale of 0 to 10 where 0 is no effect and 10 is complete control
[5] = Rate 125 g/ha, Preemergence, scale of 0 to 10 where 0 is no effect and 10 is complete control
[6] = Rate 500 g/ha, Postemergence, scale 0 to 10, 0 no effect, 10 complete control
[7] = Rate 125 g/ha, Postemergence, scale 0 to 10
[8] = Rate 62 g/ha, headed Pre-emergence (flood test species), scale 0 to 10 (0 no effect, 10 complete control)
[9] = Rate 125 g/ha, Pre-emergence, flood test species, scale 0 to 10 where 0 is no effect and 10 is complete control
[10] = Rate 250 g/ha, Pre-emergence, flood-test species, scale 0 to 10, 0 is no effect, 10 is complete control
[11] = Rate 500 g/ha, Pre-emergence, flood test species, scale 0 to 10 (0 no effect, 10 complete control)

CCC(C)N(C(=O)n1oc(=O)n(-c2ccccc2C)c1=O)c1ccc(F)cc1 (centres unmarked) [Compound 239]
Velvetleaf plant response rating (velvetleaf; [1]): 0
Velvetleaf plant response rating (velvetleaf; [2]): 2
Plant response rating, Velvetleaf (velvetleaf; [3]): 5
Velvetleaf plant response rating (velvetleaf; [4]): 0
Velvetleaf plant response rating (velvetleaf; [5]): 0
Velvetleaf plant response rating (velvetleaf; [6]): 3
Soybean plant response rating (soybean; [1]): 0
Soybean plant response rating (soybean; [2]): 0
Plant response rating, Soybean (soybean; [3]): 0
Soybean plant response rating (soybean; [4]): 1
Soybean plant response rating (soybean; [5]): 0
Soybean plant response rating (soybean; [6]): 3
Redroot pigweed plant response rating (pigweed; [1]): 0
Redroot pigweed plant response rating (pigweed; [2]): 0
Plant response rating, Redroot pigweed (pigweed; [3]): 0
Redroot pigweed plant response rating (pigweed; [4]): 0
Redroot pigweed plant response rating (pigweed; [5]): 0
Plant response rating (0 to 10; 0 is no effect, 10 is complete control), Redroot pigweed (pigweed; Rate 250 g/ha, Postemergence): 3
Redroot pigweed plant response rating (pigweed; [6]): 7
Wheat plant response rating (wheat; [1]): 0
Wheat plant response rating (wheat; [2]): 0
Plant response rating, Wheat (wheat; [3]): 2
Wheat plant response rating (wheat; [4]): 0
Wheat plant response rating (wheat; [5]): 0
Wheat plant response rating (wheat; [6]): 0
Crabgrass plant response rating (crabgrass; [2]): 10
Plant response rating, Crabgrass (crabgrass; [3]): 10
Crabgrass plant response rating (crabgrass; [4]): 0
Crabgrass plant response rating (crabgrass; [5]): 7
Plant response rating (0 to 10; 0 is no effect, 10 is complete control), Crabgrass (crabgrass; Rate 250 g/ha, Postemergence): 2
Crabgrass plant response rating (crabgrass; [6]): 6
Corn plant response rating (corn; [1]): 0
Corn plant response rating (corn; [2]): 0
Plant response rating, Corn (corn; [3]): 0
Corn plant response rating (corn; [4]): 0
Corn plant response rating (corn; [7]): 0
Corn plant response rating (corn; [5]): 0
Plant response rating (0 to 10; 0 is no effect, 10 is complete control), Corn (corn; Rate 250 g/ha, Postemergence): 0
Corn plant response rating (corn; [6]): 0
Barnyardgrass plant response rating (bamyardgrass; [8]): 0
Barnyardgrass plant response rating (bamyardgrass; [9]): 0
Barnyardgrass plant response rating (bamyardgrass; [10]): 0
Barnyardgrass plant response rating (bamyardgrass; [11]): 0
Rape plant response rating (rape; [1]): 0
Rape plant response rating (rape; [2]): 0
Plant response rating, Rape (rape; [3]): 0
Rape plant response rating (rape; [4]): 0
Rape plant response rating (rape; [5]): 0
Plant response rating (0 to 10; 0 is no effect, 10 is complete control), Rape (rape; Rate 250 g/ha, Postemergence): 0
Rape plant response rating (rape; [6]): 0
Wild oats plant response rating (wild oat; [1]): 0
Wild oats plant response rating (wild oat; [2]): 3
Plant response rating, Wild oats (wild oat; [3]): 3
Wild oats plant response rating (wild oat; [4]): 0
Wild oats plant response rating (wild oat; [5]): 0
Wild oats plant response rating (wild oat; [6]): 0
S. Flatsedge plant response rating (smallflower flatsedge; [8]): 0
S. Flatsedge plant response rating (smallflower flatsedge; [9]): 0
S. Flatsedge plant response rating (smallflower flatsedge; [10]): 0
S. Flatsedge plant response rating (smallflower flatsedge; [11]): 0
Blackgrass plant response rating (blackgrass; [1]): 0
Blackgrass plant response rating (blackgrass; [2]): 4
Plant response rating, Blackgrass (blackgrass; [3]): 4
Blackgrass plant response rating (blackgrass; [4]): 0
Blackgrass plant response rating (blackgrass; [7]): 0
Blackgrass plant response rating (blackgrass; [5]): 3
Plant response rating (0 to 10; 0 is no effect, 10 is complete control), Blackgrass (blackgrass; Rate 250 g/ha, Postemergence): 2
Blackgrass plant response rating (blackgrass; [6]): 3
B. signalgrass plant response rating (surinam grass; [1]): 0
B. signalgrass plant response rating (surinam grass; Preemergence, Rate 250 g/ha, scale 0 to 10, 0 is no effect, 10 is complete control): 4
Plant response rating, B. signalgrass (surinam grass; [3]): 5
B. signalgrass plant response rating (surinam grass; [4]): 0
B. signalgrass plant response rating (surinam grass; Rate 125 g/ha, Postemergence, scale 0 (no effect) to 10 (complete control)): 0
B. signalgrass plant response rating (surinam grass; [5]): 0
Plant response rating (0 to 10; 0 is no effect, 10 is complete control), B. signalgrass (surinam grass; Rate 250 g/ha, Postemergence): 0
B. signalgrass plant response rating (surinam grass; [6]): 0
Bedstraw plant response rating (bedstraw; [1]): 0
Bedstraw plant response rating (bedstraw; [2]): 0
Plant response rating, Bedstraw (bedstraw; [3]): 0
Bedstraw plant response rating (bedstraw; [4]): 0
Bedstraw plant response rating (bedstraw; [7]): 3
Bedstraw plant response rating (bedstraw; [5]): 0
Plant response rating (0 to 10; 0 is no effect, 10 is complete control), Bedstraw (bedstraw; Rate 250 g/ha, Postemergence): 3
Bedstraw plant response rating (bedstraw; [6]): 3
Nutsedge plant response rating (purple nutsedge; [1]): 0
Plant response rating, Nutsedge (purple nutsedge; [3]): 0
Nutsedge plant response rating (purple nutsedge; [4]): 0
Nutsedge plant response rating (purple nutsedge; [5]): 0
Plant response rating (0 to 10; 0 is no effect, 10 is complete control), Nutsedge (purple nutsedge; Rate 250 g/ha, Postemergence): 0
Nutsedge plant response rating (purple nutsedge; [6]): 0
Cocklebur plant response rating (cocklebur; [1]): 0
Cocklebur plant response rating (cocklebur; [2]): 0
Plant response rating, Cocklebur (cocklebur; [3]): 0
Cocklebur plant response rating (cocklebur; [4]): 0
Cocklebur plant response rating (cocklebur; [7]): 1
Cocklebur plant response rating (cocklebur; [5]): 0
Plant response rating (0 to 10; 0 is no effect, 10 is complete control), Cocklebur (cocklebur; Rate 250 g/ha, Postemergence): 1
Cocklebur plant response rating (cocklebur; [6]): 1
Sugarbeets plant response rating (sugar beet; [1]): 0
Sugarbeets plant response rating (sugar beet; [2]): 0
Plant response rating, Sugarbeets (sugar beet; [3]): 0
Sugarbeets plant response rating (sugar beet; [4]): 0
Sugarbeets plant response rating (sugar beet; [5]): 0
Sugarbeets plant response rating (sugar beet; [6]): 0
